Reference: US20230183207A1 (priority 2020, published 2023)

What was measured:
SARS-CoV-2 = format: cell-based
[1] = tested on: Vero-E6 and TMPRSS2-over-expressing Vero-E6 cells

| SMILES | block of cytopathic effect of SARS-CoV-2 (FIG. 2) (SARS-CoV-2) | toxicity [1] |
| --- | --- | --- |
| C=CCn1ccc2c(C(=O)Oc3cncc(Cl)c3)cccc21 [GRL-0820S] | significantly block the cytopathic effect |  |
| O=C(Oc1cncc(Cl)c1)c1cccc2[nH]ccc12 [GRL-0920S] | significantly block the cytopathic effect | without significant toxicity |
